Test results published in the NIST ThermoML archive (doi:10.1016/j.jct.2008.02.002).
“And” between values parts separate entries of the source, which are not always exact repeats. Identical values can stand only once.

Conditions: Liquid, Transpiration method

CCC1CCC(=O)O1 (stereo unspecified) [2(3H)-furanone, 5-ethyldihydro-]
Conditions | vapor or sublimation pressure [kPa]
283.3 K | 0.00612
284.1 K | 0.00643
285.3 K | 0.00733
288.2 K | 0.00998
290.2 K | 0.01151
293.2 K | 0.01468
295.3 K | 0.0168
298.2 K | 0.02155
300.2 K | 0.0271
303.2 K | 0.0324
305.2 K | 0.0372
308.1 K | 0.04647
310.1 K | 0.05153
313.2 K | 0.06502
315.1 K | 0.06992
318.2 K | 0.08725
323.2 K | 0.1267
328.2 K | 0.1719
333.2 K | 0.2306
338.2 K | 0.3093
343.1 K | 0.4065
348.2 K | 0.5374
350.9 K | 0.6238
353.3 K | 0.6982

CCCCCC1CCC(=O)O1 (stereo unspecified) [2(3H)-furanone, dihydro-5-pentyl-]
Conditions | vapor or sublimation pressure [kPa]
296.2 K | 0.00085
300 K | 0.00123
306 K | 0.00211
313.1 K | 0.00391
318.1 K | 0.00574
323.2 K | 0.0088
328.2 K | 0.01277
333.1 K | 0.01835
338 K | 0.02514
342.8 K | 0.03648
348.4 K | 0.05463
353.2 K | 0.07252
358.1 K | 0.1037
363.4 K | 0.1375

CCCC1CCC(=O)O1 (stereo unspecified) [2(3H)-furanone, dihydro-5-propyl-]
Conditions | vapor or sublimation pressure [kPa]
298.1 K | 0.00729
302.8 K | 0.01081
308 K | 0.01613
313.1 K | 0.02435
318 K | 0.03459
323.1 K | 0.05178
328.1 K | 0.07127
333 K | 0.09289
338.2 K | 0.1344
343.2 K | 0.1842
348.2 K | 0.2432
353.2 K | 0.3239
358.4 K | 0.4408
363.2 K | 0.572

CCCCCCC1CCC(=O)O1 (stereo unspecified) [γ-decalactone]
Conditions | vapor or sublimation pressure
298.4 K | 0.00035 kPa
303.3 K | 0.00056 kPa
308.2 K | 0.00088 kPa
313.1 K | 0.00146 kPa
313.4 K | 0.00144 kPa
318.2 K | 0.00214 kPa and 0.00233 kPa
322.9 K | 0.00339 kPa
323.2 K | 0.00345 kPa
328.1 K | 0.00532 kPa
328.2 K | 0.00523 kPa
333 K | 0.00765 kPa
333.2 K | 0.00791 kPa
338.1 K | 0.0114 kPa
338.7 K | 0.01181 kPa
343.2 K | 0.01646 kPa
343.9 K | 0.01747 kPa
348.2 K | 0.02361 kPa
349.4 K | 0.02507 kPa
353.3 K | 0.03379 kPa
354.8 K | 0.03595 kPa
360.3 K | 0.05404 kPa
365 K | 0.07279 kPa

CC1CCC(=O)O1 (stereo unspecified) [γ-valerolactone]
Conditions | vapor or sublimation pressure [kPa]
275.8 K | 0.00748
282 K | 0.0128
288 K | 0.02076
292.8 K | 0.02954
293.4 K | 0.03202
298.6 K | 0.04438
300.7 K | 0.05548
302.7 K | 0.06032
306.6 K | 0.08358
309 K | 0.09563
312.9 K | 0.1265
317.3 K | 0.1599
322.3 K | 0.2195
326.9 K | 0.2912
332.4 K | 0.3929
333.9 K | 0.4475
337.3 K | 0.5167
338.8 K | 0.58
342.6 K | 0.7011
343.8 K | 0.759
347.5 K | 0.9099
349.7 K | 1.033
